Measurements as given in patent US11958821B2, “Phenethylamine compounds salts, polymorphic forms and methods of use thereof” (Terran Biosciences Inc., priority 2021, dated 2024).

Experiments:
[1] = test system: participants diagnosed with at least moderate post-traumatic stress disorder (PTSD); test: Double-blind, randomized, placebo-controlled clinical trial of MDE-assisted psychotherapy in PTSD; assay type: in vivo, human; details: for Daytime sleepiness (ESS) / Clinician-rated functional impairment score (SDS) / Depression (HAM-D) / Change in CAPS-5 assessment: Study Conclusion; for Clinician-rated functional impairment score (SDS) / Depression (HAM-D) / Change in CAPS-5 assessment: vs placebo; for Change in CAPS-5 assessment: hydrochloride salt with psychotherapy; for Total dosage of drug to achieve significant mean reduction in CAPS-5: vs racemic MDE-treated subgroup
Protocol: A multicenter, randomized, double-blind, placebo-controlled trial is conducted to assess the efficacy and safety of MDE-assisted psychotherapy versus psychotherapy with placebo control in participants diagnosed with at least moderate post-traumatic stress disorder (PTSD).
This multicenter, randomized, double-blind, placebo-controlled trial is conducted at various sites in the United States with IRB approval from each study site. A flexible dose of MDE hydrochloride salt or placebo, followed by a supplemental half-dose unless contraindicated by patient's previous response or medical history, is also administered during the Treatment Period with psychotherapy in at least 3 blinded monthly Experimental Sessions. The Supplemental Dose extends the duration of drug effects on the participants during an Experimental Session. MDE test groups are further subdivided into specific groups receiving only racemic MDE hydrochloride salt, S-MDE hydrochloride salt, or R-MDE hydrochloride salt. An optional Risk Evaluation and Mitigation Strategy (REMS) Protocol may be implemented for the racemic MDE, R-MDE, and placebo-groups. The Treatment Period lasts for approximately 12 weeks. During the Treatment Period, each Experimental Session is followed by three Intervening Sessions of non-drug psychotherapy. Each Experimental Session involves an overnight stay. The Primary Outcome measure, the change in Clinician Administered PTSD Scale for DSM-5 (CAPS-5), is determined by a blinded Independent Rater (IR) pool multiple times throughout the study. The study consists of separate periods for each participant. Initially, prospective participants undergo a Screening Period involving an initial eligibility assessment, a medical history intake, informed consent, and enrollment of eligible participants. Next, a Preparation Period is undertaken for enrolled participants involving medication tapering and clinical baseline assessments to confirm each participant meets enrollment criteria. As part of the Preparation Period, a detailed assessment of co-morbidities to PTSD is recorded. Participants may remain on prescribed courses of selective serotonin reuptake inhibitor (SSRI) or serotonin and norepinephrine reuptake inhibitor (SNRI) treatment. Dosages and/or frequency of administration of a prescribed SSRI or SNRI may be adjusted to fit within study parameters. Participants may be required to taper a prescribed course of medication in order to maintain eligibility within the study. The Treatment Period consists of three monthly Experimental Sessions and associated Intervening Sessions of integrative behavioral psychotherapy. The Treatment Period lasts approximately 12 weeks. Following the Treatment Period is a Follow-up Period and Study Conclusion. During the Follow-up Period and Study Conclusion, participants complete 4 weeks with no study visits, followed by a Study Conclusion visit.
This study compares the effects of three blinded Experimental Sessions of psychotherapy in combination with flexible doses of MDE or placebo administered as described below. Non-drug preparatory and intervening psychotherapy sessions are also included. Patient's weight is determined for dosage calculation. Initial dose is 100 mg unless this will result in a dosage of less than 1.5 mg/kg of patient weight. Initial dose thereby adjusted upward in 25 mg increments to deliver the lowest dose possible of at least 1.5 mg/kg of patient weight. Initial dose for Experimental Session 2 and 3 is cumulative dose calculated by adding the initial dose plus REMS protocol dose used the previous Experimental Session for each patient.
Randomization occurs prior to the initiation of Experimental Session 1. Each participant is provided the next randomized number in a sequence by a blinded study monitor. Participants are then randomized, according to a computer-generated randomization schedule, 1:1:1:1 to racemic MDE, S-MDE, R-MDE, or placebo. […]

[2] = test system: Male Sprague-Dawley rats; test: Rat elevated zero-maze study with racemic MDE, R-MDE, S-MDE and chlordiazepoxide; details: for Percentage of time spent in the open arms (% TO), significance vs placebo / Percentage of time spent in the open arms (% TO), trend: 2.5-30 mg/kg ip
Protocol: A reduction in the amount of activity on the open areas is considered to reflect an increase in anxiety. The ethologically-based behavior, stretched attend postures (SAP) from closed to open quadrants, is assessed as an index of anxiety. […] Animals
Male Sprague-Dawley 200-250 g (Envigo UK) rats were used. Animals were group-housed (5 per cage; cage size: 40×40×20 cm) in a temperature-controlled environment (22±2° C.), under a 12 h light-dark cycle (lights on: 08:00 hours) for one week prior to testing. Food and water were freely available. Number of animals per group=5.
The elevated 0-maze comprises a black Perspex annular platform (105 cm diameter, 10 cm width) elevated to 65 cm above ground level, divided equally into four quadrants. Two opposite quadrants are enclosed by clear red Perspex walls (27 cm high) on both the inner and outer edges of the platform, while the remaining two opposite quadrants are surrounded only by a Perspex “lip” (1 cm high) which serves as a tactile guide to animals on these open areas.
Subjects were weighed and tail marked before being injected. After a specified pretreatment time, subjects were placed in a closed quadrant and a 5-min test period were recorded on videotape for subsequent analysis. The maze was cleaned with 5% methanol/water solution and dried thoroughly between test sessions. Behavioural measures comprise percentage time spent on the open areas (% TO) and frequency of stretched attend postures (SAP) from closed to open quadrants. Animals are scored as being in the open area when all four paws were in an open quadrant and in the closed area only when all four paws have passed over the open-closed divide.
Thirty min later at T=0, rats were individually placed in a closed arm of the zero-maze and behavior was assessed by a “blind” observer using remote video monitoring over the subsequent 5 min. The animal was then removed and the maze carefully wiped with 5% methanol/water solution before the next test was begun.
Thirty min later at T=0, rats were individually placed in a closed arm of the zero-maze and behavior assessed by a “blind” observer using remote video monitoring over the subsequent 5 min. The animal was then removed and the maze carefully wiped with 5% methanol/water solution before the next test was begun.

[3] = Dynamic vapor sorption (DVS) analysis with post-DVS XRPD; assay type: physicochemical
Protocol: DVS analysis was carried out using a TA Instruments Q5000 Dynamic Vapor Sorption analyzer. The instrument was calibrated with standard weights and a sodium bromide standard for humidity. Approximately 5-25 mg of sample was loaded into a metal-coated quartz pan for analysis. The sample was analyzed at 25° C. with a maximum equilibration time of one hour in 10% relative humidity (RH) steps from 5 to 95% RH (adsorption cycle) and from 95 to 5% RH (desorption cycle). The movement from one step to the next occurred either after satisfying the equilibrium criterion of 0.01% weight change or, if the equilibrium criterion was not met, after one hour. The percent weight change values were calculated using Microsoft Excel®.

[4] = highest dose, ip, 30 min before 5-min test

SMILES	Daytime sleepiness (ESS) [1]	Clinician-rated functional impairment score (SDS) [1]	Depression (HAM-D) [1]	Change in CAPS-5 assessment [1]	Adverse anxiogenic incidents ([1]; vs placebo-treated controls)	Total dosage of drug to achieve significant mean reduction in CAPS-5 [1]	Frequency of stretched attend postures (SAP) ([2]; 5 mg/kg ip)	Frequency of stretched attend postures (SAP) ([2]; 10 mg/kg ip)	Frequency of stretched attend postures (SAP) ([2]; 15 mg/kg ip)	Percentage of time spent in the open arms (% TO) ([2]; 15 mg/kg ip)	Frequency of stretched attend postures (SAP) ([2]; 20 mg/kg ip)	Percentage of time spent in the open arms (% TO), significance vs placebo [2]	Frequency of stretched attend postures (SAP) ([2]; any dose vs placebo)	Frequency of stretched attend postures (SAP) [2, 4]	Frequency of stretched attend postures (SAP) ([2]; 2.5 mg/kg ip)	Frequency of stretched attend postures (SAP) ([2]; 30 mg/kg ip)	Percentage of time spent in the open arms (% TO), trend [2]	Hygroscopicity by DVS ([3]; 25° C., 5 to 95% RH, listed as MBDB Maleate Form 1)	DVS weight gain ([3]; at 95% RH) [%]	Post-DVS XRPD (form change) ([3]; solids after DVS analysis)
CCN[C@@H](C)Cc1ccc2c(c1)OCO2 [S-MDE, (S)—N-ethyl-3,4-methylenedioxyamphetamine]	significant improvement in lessening daytime sleepiness	significant improvement in clinician-rated functional impairment score	significant improvement depression	significant mean reduction in CAPS-5 assessment compared to the placebo group	without a significant increase in adverse anxiogenic incidents	lower total dosage of drug compared to the racemic MDE-treated subgroup	significantly decreased the number of SAPs	significantly decreased the number of SAPs	significantly decreased the number of SAPs	large numerical increase in time in the open arms	significantly decreased the number of SAPs	did not show significant changes when compared to placebo	did not increase the number of SAPs beyond placebo at any dose	decreased the frequency of SAPs as effectively as the benzodiazepine chlordiazepoxide	–	–	–	–	–	–
CCNC(C)Cc1ccc2c(c1)OCO2 (racemic) [racemic MDE, N-ethyl-3,4-methylenedioxyamphetamine]	significant improvement in lessening daytime sleepiness	significant improvement in clinician-rated functional impairment score	significant improvement depression	significant mean reduction in CAPS-5 assessment compared to the placebo group	–	–	did not show any difference from placebo	dose dependent decrease in SAPs and a significant anxiolytic effect	dose dependent decrease in SAPs and a significant anxiolytic effect	–	–	did not show significant changes when compared to placebo	–	decreased the frequency of SAPs as effectively as the benzodiazepine chlordiazepoxide	significant increase in SAPs	dose dependent decrease in SAPs and a significant anxiolytic effect	trended towards reduced time in the open arms	–	–	–
CCN[C@H](C)Cc1ccc2c(c1)OCO2 [R-MDE, (R)—N-ethyl-3,4-methylenedioxyamphetamine]	significant improvement in lessening daytime sleepiness	significant improvement in clinician-rated functional impairment score	significant improvement depression	significant mean reduction in CAPS-5 assessment compared to the placebo group	–	lower total dosage of drug compared to the racemic MDE-treated subgroup	increase in SAPs at the 5 mg/kg dose range as well which trended toward significance	not significantly different from placebo	not significantly different from placebo	–	–	did not show significant changes when compared to placebo	–	decreased the frequency of SAPs as effectively as the benzodiazepine chlordiazepoxide	increase in the number of SAPs at the 2.5 mg/kg dose which trended towards significance	significant reduction in SAPs	trended towards reduced time in the open arms	–	–	–
CCC(Cc1ccc2c(c1)OCO2)NC.O=C(O)/C=C\C(=O)O (stereo not drawn) [MBDB maleate Form 1]	–	–	–	–	–	–	–	–	–	–	–	–	–	–	–	–	–	slightly hygroscopic	0.6	no form change
